Data as given in patent publication US20080255232A1, “Naphthyl Derivatives as Inhibitors of Beta-Amyloid Aggregation” (SIGMA-TAU INDUSTRIE FARMACEUTICHE RIUNITE S.P.A., priority 2005, published 2008).
Counter-ions that a name gives are not always drawn. Like-named read-outs stand apart in the source and are kept apart here.

Tests used:
peptide βA1-42 = biological target: T1, peptide βA1-42 (Homo sapiens, UniProt P05067); experiment: Anti-aggregating activity on peptide βA1-42, thioflavin T fluorescence; assay type: biochemical; settings: thioflavin T binding, aggregate + non aggregate β-A(1-42), 37° C., 24 hours; read-out: IC50 (dose reducing the aggregate formation of the 50%)
T1 construct: The β-A(1-42) was dissolved in a mixture of Acetonitrile and distilled water
T1 sequence (P05067 672-713): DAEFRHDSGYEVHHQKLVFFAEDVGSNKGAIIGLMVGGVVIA
Protocol: The anti-aggregating activity of the compound of formula (I) on the peptide βA1-42 is carried out via the binding of the thioflavin T according to the following procedure.
The β-A(1-42) was dissolved in a mixture of Acetonitrile and distilled water (CH3CN/H2O 1:1) to the final concentration of 1 mg/mL. The solution was divided in aliquots of 2 mL and stored at −80° C. until the use. The work solution was prepared diluting the stock solution five times with H2O (final concentration 44 μmol/L).
The β-A(1-42) was dissolved in a mixture of Acetonitrile and distilled water (CH3CN/H2O 1:1) to the final concentration of 1 mg/mL. An aliquot of 2 mL was freeze-dried to eliminate the trifluoroacetic acid residual of the peptide synthesis. The β-A(1-42) peptide was subsequently dissolved in 0.1 mL of DMSO and 5.0 mL of 2×PBS, pH 7.4. Once dissolved the β-A(1-42) was incubated to 37° C. for 8 days, at the end, after sonication, it was diluted five times with 2×PBS (final concentration 17.4 μmol/L). Waiting to be used, the aggregate β-A(1-42) was divided in aliquots and stored at −80° C.
Fluorescence Measurement with Thioflavin T
Scheme of added volumes in 96-well plates:
The assay was performed in triplicate in 96-well plates as reported above in scheme. Test compounds were added in the wells containing the aggregate β-A(1-42) then, 15 after minutes, the non-aggregate β-A(1-42) was added. The 96-well plates were incubated at 37° C. under agitation for 24 hours.
The following day, a volume of 200 μL of a solution containing 10 μmol/L thioflavin T and 50 μmol/L Na2HPO4 pH 6.5 was added to each well. Fluorescence was measured in a VICTOR 2 (WALLAC) fluorescence spectrophotometer (λex=450 nm, λem=486 nm) (Findelis M. A et al).
The data were expressed as percent of residual aggregated β-A and, when possible, the dose reducing the aggregate formation of the 50% (IC50) was estimate.
The % of aggregation was determinated by the following formula:
(βAmyloid+Test compound)−(Blank+Test compound)×100

[1] = Blood brain barrier crossing: plasma and brain concentrations after s.c. injection; assay type: in vivo; settings: mice, s.c. 25 mg/kg
Protocol: In order to obtain basic information on the concentration achieved in brain of rodents after parental doses and their relationship with plasma concentrations, mice and rats were used. […] Compounds were determined in plasma by high-performance liquid chromatography (HPLC) after a solid liquid extraction procedure. Briefly, Oasis HLB 1 cc cartridges were pre-wetted with methanol and distilled water. Then internal standard, mouse plasma or rat plasma were added and the cartridges were washed with mater-methanoland methanol, interrupting the vacuum before the column was completely dry after each passage. The compound was removed by eluiting the cartridges with methanol and evaporated to dryness under nitrogen. The residue was dissolved in the mobile phase centrifuged and analyzed by HPLC with UV detection (224 nm).
Separation was done on a pBondapack C18 column protected by a LiChrosphere RP-8 pre-column at room temperature. The mobile phase was CH3CN:CH3OH:0.001M KH2PO4 (40:10:50 v/v) delivered at a flow rate of 1.2 mL/min.
Brain tissue was homogenized (1 g/10 ml) in CH3CN:0.001M phosphate buffer, pH 7.4 and a volume containing approximately 100 mg of tissue was centrifuged. The supernatant was processed as for plasma.
Mean brain and plasma area under the concentration-time curve (AUCt) were determined using the linear trapezoidal rule and extrapolated to infinity (AUC) by the concentration method. The elimination rate constant was calculated by least squares regression analysis of the terminal log-linear portion of the plasma and the brain drug concentration curves. The maximum concentration (Cmax) and the time (tmax) of its occurrence were read directly from the plasma and brain concentration time data.

`Oc1ccc2ccccc2c1Cc1c(O)ccc2ccccc12` [ST1859, 1-[(2-hydroxy-1-naphthyl)methyl]-2-naphthol, reference compound] gave an IC50 (peptide βA1-42) of 23.5 µM.
`COc1ccc(Nc2ccccc2)c2ccccc12` [ST2173, 4-methoxy-N-phenyl-1-naphthalenamine] showed a melting point of 141 to 143 °C.
`COc1ccc(Nc2ccc(OC)c3ccccc23)cc1C(=O)O` [ST2174, 2-methoxy-5-[(4-methoxy-1-naphthyl)amino]benzoic acid] gave a melting point of 153 to 154 °C.
With `COc1ccc(Nc2ccc(OC)c3ccccc23)cc1` [ST2175, 4-methoxy-N-(4-methoxyphenyl)-1-naphthalenamine] the IC50 (peptide βA1-42) was 5.59 µM, the “Cmax, Brain” value ([1]; brain) was 410 ng/mL or L and the “AUCt, Brain” value ([1]; brain, linear trapezoidal rule) was 1643 ng/L · h or g. The Kp at 0.25 h ([1]; mouse, brain, sc, 25 mg/kg, 15 min, read-out: Brain to Plasma ratio) was 2.3, the Kp at 0.5 h ([1]; mouse, brain, sc, 25 mg/kg, 30 min, read-out: Brain to Plasma ratio) was 3.6 and the Kp at 1 h ([1]; mouse, brain, sc, 25 mg/kg, 60 min, read-out: Brain to Plasma ratio) was 2.5. For the same compound, the Kp at 2 h ([1]; mouse, brain, sc, 25 mg/kg, 120 min, read-out: Brain to Plasma ratio) was 2, the Kp at 3 h ([1]; mouse, brain, sc, 25 mg/kg, 180 min, read-out: Brain to Plasma ratio) was 1.8 and the Kp at 4 h ([1]; mouse, brain, sc, 25 mg/kg, 240 min, read-out: Brain to Plasma ratio) was 1.3. The Kp at 6 h ([1]; mouse, brain, sc, 25 mg/kg, 360 min, read-out: Brain to Plasma ratio) was 1.7, the Kp ([1]; mouse, brain, sc, 25 mg/kg, read-out: AUCt, Brain to Plasma ratio) was 1.9 and the Kp ([1]; mouse, brain, sc, 25 mg/kg, read-out: Cmax, Brain to Plasma ratio) was 2.5. The concentration at 15 min ([1]; mouse, brain, sc, 15 min, read-out: Brain (mean ± SD)) was 321 ± 130 ng/g, the concentration at 30 min ([1]; mouse, brain, sc, 30 min, read-out: Brain (mean ± SD)) was 398 ± 269 ng/g and the concentration at 60 min ([1]; mouse, brain, sc, 60 min, read-out: Brain (mean ± SD)) was 410 ± 192 ng/g. It also gave a concentration at 120 min ([1]; mouse, brain, sc, 120 min, read-out: Brain (mean ± SD)) of 289 ± 61 ng/g, a concentration at 180 min ([1]; mouse, brain, sc, 180 min, read-out: Brain (mean ± SD)) of 253 ± 77 ng/g and a concentration at 240 min ([1]; mouse, brain, sc, 240 min, read-out: Brain (mean ± SD)) of 220 ± 61 ng/g. The concentration at 360 min ([1]; mouse, brain, sc, 360 min, read-out: Brain (mean ± SD)) was 232 ± 94 ng/g, the concentration at 15 min ([1]; mouse, plasma, sc, 15 min, read-out: Plasma (mean ± SD)) was 138 ng/mL and the concentration at 30 min ([1]; mouse, plasma, sc, 30 min, read-out: Plasma (mean ± SD)) was 109 ng/mL. It also gave a concentration at 60 min ([1]; mouse, plasma, sc, 60 min, read-out: Plasma (mean ± SD)) of 164 ± 18 ng/mL, a concentration at 120 min ([1]; mouse, plasma, sc, 120 min, read-out: Plasma (mean ± SD)) of 142 ± 16 ng/mL and a concentration at 180 min ([1]; mouse, plasma, sc, 180 min, read-out: Plasma (mean ± SD)) of 139 ± 31 ng/mL. The concentration at 240 min ([1]; mouse, plasma, sc, 240 min, read-out: Plasma (mean ± SD)) was 159 ± 38 ng/mL, the concentration at 360 min ([1]; mouse, plasma, sc, 360 min, read-out: Plasma (mean ± SD)) was 130 ± 13 ng/mL and the Tmax ([1]; mouse, sc, brain, read-out: tmax, Brain (converted)) was 1 h. For the same compound, the Cmax ([1]; mouse, sc, plasma) was 164 ng/mL, the AUC(0-t) ([1]; mouse, sc, plasma, linear trapezoidal rule, read-out: AUCt, Plasma) was 850 ng·h/mL and the Tmax ([1]; mouse, sc, plasma, read-out: tmax, Plasma (converted)) was 1 h.
`Oc1ccc(Nc2ccccc2)c2ccccc12` [ST2176, 4-anilino-1-naphthol] gave an IC50 (peptide βA1-42) of 5.43 µM.
For `Oc1ccc(Nc2ccc(O)c3ccccc23)cc1` [ST2177, 4-(4-hydroxyanilino)-1-naphthol], the IC50 (peptide βA1-42) was 1 µM.
Work on `COC(=O)c1ccc(Nc2ccc(O)c3ccccc23)cc1` [ST2178, methyl 4-[(4-hydroxy-1-naphthyl)amino]benzoate] yielded a melting point of 188 to 190 °C and an IC50 (peptide βA1-42) of 5.13 µM.
`O=C(O)c1ccccc1Nc1c(O)ccc2ccccc12` [ST2757, 2-[(2-hydroxy-1-naphthyl)amino]benzoic acid] gave an IC50 (peptide βA1-42) of 14.1 µM.
For `COc1ccc2ccccc2c1Nc1c(OC)ccc2ccccc12` [ST2761, 2-methoxy-N-(2-methoxy-1-naphthyl)naphthalen-1-amine], the IC50 (peptide βA1-42) was 5.7 µM.
`Oc1c(Nc2ccccc2)ccc2ccccc12` [ST2762, 1-hydroxy-N-phenylnaphthalen-2-aminiumchloride] showed an IC50 (peptide βA1-42) of 2.4 µM.
`COc1ccccc1Nc1ccc(OC)c2ccccc12` [ST2879, N-(4-methoxy-1-naphthyl)-N-(2-methoxyphenyl)amine] showed a melting point of 108 to 110 °C.
`COc1ccc(Nc2ccc([N+](=O)[O-])c3ccccc23)cc1` [ST3451, N-(4-methoxyphenyl)-4-nitronaphthalen-1-amine] showed an IC50 (peptide βA1-42) of 2.7 µM.
In the case of `CSc1ccc(Nc2ccc(N(C)C)c3ccccc23)cc1` [ST3458, N,N-dimethyl-N′-[4-(methylthio)phenyl]naphthalene-1,4-diamine dihydrochloride], the IC50 (peptide βA1-42) is reported as 2.2 µM.
Work on `O=C(O)c1ccc(Nc2ccc3ccccc3c2O)cc1` [ST3459, 4-[(1-hydroxy-2-naphthyl)amino]benzoic acid] yielded an IC50 (peptide βA1-42) of 2.6 µM.
`Oc1ccc(Sc2ccc(O)c3ccccc23)cc1` [ST3501, 4-[(4-hydroxyphenyl)thio]-1-naphthol] showed an IC50 (peptide βA1-42) of 7.2 µM.
